Source: US20040171659A1, “Methods for treating diabetes” (priority 2002, published 2004)

Legend:
monocyte migration = conditions: Chen 2001; cited from earlier work
rat insulinoma cells = conditions: cited from earlier work
p38 MAPK = biological target: T1, p38 MAPK (Homo sapiens, UniProt Q16539); experiment: phosphorylation assay of p38 MAPK activity (see Kumar); type: biochemical; conditions: assay similar to the phosphorylation assay (Kumar); read-out: p38 MAPK activity, relative IC50 value
T1 construct: made in house; host or cells: cells (e.g., HeLa) transfected with kinase DNA, stimulated, kinase immunoprecipitated from lysate
Protocol: After immunoprecipitation of cell lysates, equal aliquots of immune complexes of the kinases are pre-incubated for an adequate time with a specific concentration of the potential inhibitor followed by addition of kinase substrate buffer mix containing labeled ATP and GST-ATF2 or MBP. […] Phosphorylated substrate is resolved through SDS-PAGE and visualized and quantitated in a phosphorimager. […] Res. Commun.

T1 sequence (Q16539 whole entry): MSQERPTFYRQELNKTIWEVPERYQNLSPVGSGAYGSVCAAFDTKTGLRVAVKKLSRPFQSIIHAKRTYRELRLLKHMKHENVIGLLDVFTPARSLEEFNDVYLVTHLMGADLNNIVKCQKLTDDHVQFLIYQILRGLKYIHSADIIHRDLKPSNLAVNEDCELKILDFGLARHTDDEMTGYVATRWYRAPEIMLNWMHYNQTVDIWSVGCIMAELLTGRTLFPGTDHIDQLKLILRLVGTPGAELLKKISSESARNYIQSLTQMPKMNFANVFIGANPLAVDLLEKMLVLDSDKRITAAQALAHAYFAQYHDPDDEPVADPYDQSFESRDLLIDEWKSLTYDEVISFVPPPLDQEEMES

IC50 (p38 MAPK)	Structure (SMILES)	Monocyte migration (monocyte migration)	p38-dependent enhancement of cytokines expression by hsp70 (rat insulinoma cells)
	C[S+]([O-])c1ccc(-c2nc(-c3ccncc3)c(-c3ccc(F)cc3)[nH]2)cc1 (stereo not drawn) [SB203580]	blockade	blocks this activity
< 5 nM	COc1cc2c(cc1C(=O)N1CC(C)N(Cc3ccc(F)cc3)CC1C)c(C(=O)C(=O)N(C)C)cn2C (stereo not drawn) [compound 15]		
